Measurements taken from the OPERA property sets (Mansouri et al. 2018).

Conditions: not given

| Compound | melting point [°C] | boiling point [°C] | log10 Koc (L/kg) | log10 vapour pressure (mmHg) | ready biodegradability | log10 Henry constant (atm·m³/mol) |
| --- | --- | --- | --- | --- | --- | --- |
| CNCCCC12CCC(c3ccccc31)c1ccccc12 | 93 |  |  |  |  |  |
| CC(=O)Oc1cc(C(C)C)ccc1C |  | 246 |  |  |  |  |
| COC1=CC(=O)C[C@@H](C)[C@]12Oc1c(Cl)c(OC)cc(OC)c1C2=O | 220 |  |  |  |  |  |
| CC(O)c1ccco1 (stereo unspecified) |  | 162 |  |  |  |  |
| O=C(O)Cc1ccccc1F | 63 |  |  |  |  |  |
| C=Cc1ccncc1 |  |  | 1.18 | 0.23 | not readily biodegradable |  |
| CCC(C)(C)C(=O)O | -14 | 186 |  | -0.83 |  |  |
| COc1ccccc1F | -39 | 154 |  |  |  |  |
| CC(=O)Nc1ccc(OCC(O)CNC(C)C)cc1 (stereo unspecified) | 135 |  |  |  |  |  |
| COc1ccc(CO)cc1 | 25 | 259 |  |  |  |  |
| CC1OC(=O)C=C2C3=C(OC(C)(C)CC3)C(=O)C(O)=C21 (stereo unspecified) | 230 |  |  |  |  |  |
| Oc1ccc(C2CCCC2)cc1 | 65 |  |  |  |  |  |
| CN1C(=O)CN=C(c2ccccc2F)c2cc([N+](=O)[O-])ccc21 | 166 |  |  |  |  |  |
| CCCNC(=O)NCCC | 105 | 255 |  |  |  |  |
| CCCCCCCCCCCC(=O)Oc1ccccc1 | 24.5 |  |  |  |  |  |
| Nc1nccs1 | 93 |  |  |  | not readily biodegradable |  |
| O=C(c1ccccc1)c1ccc(O)cc1O | 144 |  |  |  | not readily biodegradable |  |
| Oc1ccc(Nc2ccccc2)cc1 | 73 | 330 |  |  |  |  |
| CCCC(CC)CC(C)C (stereo unspecified) |  | 158 |  |  |  |  |

| Compound | melting point [°C] | boiling point [°C] | log10 Koc (L/kg) | log10 vapour pressure (mmHg) | ready biodegradability | log10 Henry constant (atm·m³/mol) |
| --- | --- | --- | --- | --- | --- | --- |
| N#Cc1cccc(O)c1 | 80 |  |  |  |  |  |
| C=CC(CC)CC | -128 | 84.1 |  | 1.91 |  |  |
| CC(C)c1ccc(C(C)C)cc1 | -17 | 210 |  | -0.609 | not readily biodegradable |  |
| N=C(N)N1CCc2ccccc2C1 | 279 |  |  |  |  |  |
| COc1cc(C(=O)N2CCOCC2)cc(OC)c1OC | 121 |  |  |  |  |  |
| C=Cc1cccc(C)c1 | -86.3 | 164 |  | 0.231 |  |  |
| C1CSCSC1 | 54 |  |  |  |  |  |
| O=C(O)CCBr | 62.5 |  |  |  |  |  |
| Fc1ccccc1C1=NCC(=S)N(CC(F)(F)F)c2ccc(Cl)cc21 | 138 |  |  |  |  |  |
| CCCCCCCCCCCCCC(=O)OC | 19 | 295 |  | -3.31 |  |  |
| S=C(SC(=S)N1CCCCC1)N1CCCCC1 | 110 |  |  |  |  |  |
| C[C@]12C=C(C=O)C(=O)C=C1CC[C@@H]1[C@@H]2[C@H](O)C[C@@]2(C)[C@H]1CC[C@]2(C)O | 210 |  |  |  |  |  |
| CCCCCN1CCCCC1 |  | 198 |  |  |  |  |
| Brc1sc(Br)c(Br)c1Br | 118 | 326 |  |  |  |  |
| COCCOCCOCCO | -44 | 249 |  |  | readily biodegradable |  |
| CCCCC1C(=O)N(c2ccccc2)N(c2ccccc2)C1=O | 105 |  |  |  |  |  |
| Cc1ccc(NC(=O)N(C)C)cc1 |  |  | 1.51 |  |  |  |
| CCC#CCCCC | -104 | 133 |  |  |  |  |
| COc1cc(C(=O)NCCCCCC(=O)O)cc(OC)c1OC | 122 |  |  |  |  |  |

| Compound | melting point [°C] | boiling point [°C] | log10 Koc (L/kg) | log10 vapour pressure (mmHg) | ready biodegradability | log10 Henry constant (atm·m³/mol) |
| --- | --- | --- | --- | --- | --- | --- |
| FC(F)(F)C(F)(F)C(F)(C(F)(F)F)C(F)(F)C(F)(F)F | -115 | 58.4 |  |  |  |  |
| O=c1cccccc1O | 50.8 |  |  |  |  |  |
| OCCSSCCO | 26 |  |  |  |  |  |
| O=Cc1ccccn1 |  | 180 |  |  |  |  |
| CCOc1ccc(CC(=O)O)cc1 | 88.5 |  |  |  |  |  |
| BrC(Br)=C(Br)Br | 56.5 | 226 |  |  |  |  |
| CCCCCCC[C@H](C)O | -35.5 | 194 |  | -1.17 |  |  |
| c1ccc(OC2CCCCC2)cc1 |  | 261 |  |  |  |  |
| CCCCC(CC)COC(=O)c1ccc(C(=O)OCC(CC)CCCC)c(C(=O)OCC(CC)CCCC)c1 (stereo unspecified) |  | 414 |  |  | not readily biodegradable |  |
| CO[SiH](OC)OC | -115 | 81 |  | 1.88 |  |  |
| CC(=O)O[Si](C)(OC(C)=O)OC(C)=O | 40.5 |  |  |  |  |  |
| C=CCCl | -134 | 45.1 |  | 2.57 | readily biodegradable |  |
| O=S(=O)(O)c1ccc(O)c2ncccc12 | 322 |  |  |  |  |  |
| COS(=O)(=O)c1ccc(C)cc1 | 28.5 | 292 |  |  |  |  |
| Nc1ncnc2c1ncn2[C@@H]1O[C@@H]2COP(=O)(O)O[C@H]2[C@H]1O | 220 |  |  |  |  |  |
| COc1ccc(N)cc1 | 57.2 | 243 | 1.93 | -1.52 | readily biodegradable | -7.18 |
| C=CC(Cl)CCl (stereo unspecified) | -61 | 116 |  | 1.34 | not readily biodegradable |  |
| Cc1ccc(Cc2ccccc2)cc1 | -30 | 286 |  |  |  |  |
| Cc1c(F)cccc1Cl |  | 154 |  |  |  |  |

Same assay, conditions: fish

| Compound | log10 BCF | log10 biotransformation half-life (days) |
| --- | --- | --- |
| O=NN(c1ccccc1)c1ccccc1 | 1.33 | -0.91 |
| COc1ccc(C(c2ccc(OC)cc2)C(Cl)(Cl)Cl)cc1 | 2.5 |  |
| C1CCCCCCCCCCC1 | 3.91 | 1.33 |
| CC(=O)N(C)c1ccccc1 | 0.18 | -1.12 |
| Cc1c([N+](=O)[O-])c(C)c([N+](=O)[O-])c(C(C)(C)C)c1[N+](=O)[O-] | 3.61 |  |
| ClC(COCC(Cl)C(Cl)(Cl)Cl)C(Cl)(Cl)Cl (stereo unspecified) | 3.28 |  |
| Clc1ccc(Cl)c(-c2ccccc2Cl)c1 | 4.23 | 1.87 |
| C=Cc1ccncc1 | 1.86 |  |
| Clc1ccc(-c2cc(Cl)c(Cl)c(Cl)c2)cc1 |  | 1.69 |
| CC(C)c1ccc(C(C)C)cc1 | 3.24 | 0.6 |
| C=Cc1cccc(C)c1 | 1.55 |  |
| CCCCC(CC)COC(=O)c1ccc(C(=O)OCC(CC)CCCC)c(C(=O)OCC(CC)CCCC)c1 (stereo unspecified) | 1.17 |  |
| C=CCCl | 0.7 | -0.93 |
| C=CC(Cl)CCl (stereo unspecified) | 1.11 | -1.28 |
